According to patent US20140107219A1, “LOCAL ANAESTHETIC” (VITA (EUROPE) LIMITED, priority 2011, published 2014):
Where “and” joins values, the source holds several entries; their conditions need not be identical. Equal entries are not always repeated. Where two headings read alike, the source gives them in different places.

Assays:
[1] = molecular target: T1, hNav1.2 sodium channels (SCN2A gene, expressed in CHO cells) (Homo sapiens, UniProt Q99250); test: Automated patch clamp (PatchXpress 7000A), cloned hNav1.2 in CHO cells, tonic and phasic; type: cell-based; details: for inhibition at 730 µg/mL / inhibition at 1460 µg/mL / inhibition at 2190 µg/mL / inhibition at 2920 µg/mL: CHO
T1 construct: expressed in transfected cells; host or cells: CHO cells
T1 sequence (Q99250 whole entry): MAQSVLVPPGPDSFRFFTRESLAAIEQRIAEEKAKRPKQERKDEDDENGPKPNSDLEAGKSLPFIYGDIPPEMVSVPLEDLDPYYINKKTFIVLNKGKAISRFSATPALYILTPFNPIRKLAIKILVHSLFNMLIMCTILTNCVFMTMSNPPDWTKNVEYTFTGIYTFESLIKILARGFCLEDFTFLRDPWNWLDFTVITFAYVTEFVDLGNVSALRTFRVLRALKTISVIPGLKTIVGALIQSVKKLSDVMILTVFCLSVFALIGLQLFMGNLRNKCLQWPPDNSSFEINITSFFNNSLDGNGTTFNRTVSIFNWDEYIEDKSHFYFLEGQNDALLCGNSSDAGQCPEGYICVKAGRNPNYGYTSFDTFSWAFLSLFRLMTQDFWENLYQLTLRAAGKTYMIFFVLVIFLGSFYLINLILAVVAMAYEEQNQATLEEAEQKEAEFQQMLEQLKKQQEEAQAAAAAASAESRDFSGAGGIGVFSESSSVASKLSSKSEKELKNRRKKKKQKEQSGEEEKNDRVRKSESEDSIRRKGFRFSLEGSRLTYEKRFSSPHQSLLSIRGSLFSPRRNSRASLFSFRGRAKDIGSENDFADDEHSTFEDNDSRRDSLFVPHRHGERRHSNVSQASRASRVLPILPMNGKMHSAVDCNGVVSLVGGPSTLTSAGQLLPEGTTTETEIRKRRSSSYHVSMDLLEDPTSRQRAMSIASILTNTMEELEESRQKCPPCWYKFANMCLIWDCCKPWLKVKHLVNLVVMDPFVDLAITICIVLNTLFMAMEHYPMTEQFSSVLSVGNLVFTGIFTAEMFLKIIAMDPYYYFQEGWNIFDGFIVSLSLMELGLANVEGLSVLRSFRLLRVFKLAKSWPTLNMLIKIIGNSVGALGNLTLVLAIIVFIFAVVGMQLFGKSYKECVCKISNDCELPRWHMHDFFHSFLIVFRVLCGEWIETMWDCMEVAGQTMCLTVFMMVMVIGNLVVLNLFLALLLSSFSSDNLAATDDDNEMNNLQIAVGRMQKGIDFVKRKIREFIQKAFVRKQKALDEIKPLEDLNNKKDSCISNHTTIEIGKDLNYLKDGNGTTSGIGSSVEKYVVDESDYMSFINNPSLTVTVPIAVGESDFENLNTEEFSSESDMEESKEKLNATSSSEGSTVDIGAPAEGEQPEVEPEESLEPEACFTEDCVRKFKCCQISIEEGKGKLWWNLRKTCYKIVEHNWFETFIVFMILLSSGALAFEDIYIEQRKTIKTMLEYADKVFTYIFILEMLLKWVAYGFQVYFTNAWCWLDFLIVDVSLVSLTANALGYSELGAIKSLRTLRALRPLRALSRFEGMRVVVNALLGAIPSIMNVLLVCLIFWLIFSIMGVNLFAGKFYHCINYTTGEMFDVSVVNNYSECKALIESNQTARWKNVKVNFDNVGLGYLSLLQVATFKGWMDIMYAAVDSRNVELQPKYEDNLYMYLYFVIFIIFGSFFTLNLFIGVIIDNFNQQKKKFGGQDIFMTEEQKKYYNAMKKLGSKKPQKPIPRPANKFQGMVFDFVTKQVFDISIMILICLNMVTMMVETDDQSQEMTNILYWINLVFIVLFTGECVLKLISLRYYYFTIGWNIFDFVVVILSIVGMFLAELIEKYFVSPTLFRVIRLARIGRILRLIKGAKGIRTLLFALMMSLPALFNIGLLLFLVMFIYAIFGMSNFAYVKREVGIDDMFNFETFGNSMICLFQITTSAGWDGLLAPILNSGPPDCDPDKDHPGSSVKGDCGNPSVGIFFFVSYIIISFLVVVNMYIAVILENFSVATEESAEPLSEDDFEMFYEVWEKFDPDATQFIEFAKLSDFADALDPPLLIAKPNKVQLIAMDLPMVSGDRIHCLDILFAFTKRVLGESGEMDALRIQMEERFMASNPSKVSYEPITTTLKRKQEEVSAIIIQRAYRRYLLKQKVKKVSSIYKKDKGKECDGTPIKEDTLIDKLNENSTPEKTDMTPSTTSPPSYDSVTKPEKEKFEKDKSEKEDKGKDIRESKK
Excerpt: (§1) 1. Cloned hNav1.2 sodium channels (SCN2A gene, expressed in CHO cells). 2. Cloned hNav1.6 sodium channels (SCN8A gene, expressed in CHO cells).

[2] = molecular target: T2, hNav1.6 sodium channels (SCN8A gene, expressed in CHO cells) (Homo sapiens, UniProt Q9UQD0); test: Automated patch clamp (PatchXpress 7000A), cloned hNav1.6 in CHO cells, tonic and phasic; type: cell-based; details: for inhibition at 730 µg/mL / inhibition at 1460 µg/mL / inhibition at 2190 µg/mL / inhibition at 2920 µg/mL: CHO
T2 construct: expressed in transfected cells; host or cells: CHO cells
T2 sequence (Q9UQD0 whole entry): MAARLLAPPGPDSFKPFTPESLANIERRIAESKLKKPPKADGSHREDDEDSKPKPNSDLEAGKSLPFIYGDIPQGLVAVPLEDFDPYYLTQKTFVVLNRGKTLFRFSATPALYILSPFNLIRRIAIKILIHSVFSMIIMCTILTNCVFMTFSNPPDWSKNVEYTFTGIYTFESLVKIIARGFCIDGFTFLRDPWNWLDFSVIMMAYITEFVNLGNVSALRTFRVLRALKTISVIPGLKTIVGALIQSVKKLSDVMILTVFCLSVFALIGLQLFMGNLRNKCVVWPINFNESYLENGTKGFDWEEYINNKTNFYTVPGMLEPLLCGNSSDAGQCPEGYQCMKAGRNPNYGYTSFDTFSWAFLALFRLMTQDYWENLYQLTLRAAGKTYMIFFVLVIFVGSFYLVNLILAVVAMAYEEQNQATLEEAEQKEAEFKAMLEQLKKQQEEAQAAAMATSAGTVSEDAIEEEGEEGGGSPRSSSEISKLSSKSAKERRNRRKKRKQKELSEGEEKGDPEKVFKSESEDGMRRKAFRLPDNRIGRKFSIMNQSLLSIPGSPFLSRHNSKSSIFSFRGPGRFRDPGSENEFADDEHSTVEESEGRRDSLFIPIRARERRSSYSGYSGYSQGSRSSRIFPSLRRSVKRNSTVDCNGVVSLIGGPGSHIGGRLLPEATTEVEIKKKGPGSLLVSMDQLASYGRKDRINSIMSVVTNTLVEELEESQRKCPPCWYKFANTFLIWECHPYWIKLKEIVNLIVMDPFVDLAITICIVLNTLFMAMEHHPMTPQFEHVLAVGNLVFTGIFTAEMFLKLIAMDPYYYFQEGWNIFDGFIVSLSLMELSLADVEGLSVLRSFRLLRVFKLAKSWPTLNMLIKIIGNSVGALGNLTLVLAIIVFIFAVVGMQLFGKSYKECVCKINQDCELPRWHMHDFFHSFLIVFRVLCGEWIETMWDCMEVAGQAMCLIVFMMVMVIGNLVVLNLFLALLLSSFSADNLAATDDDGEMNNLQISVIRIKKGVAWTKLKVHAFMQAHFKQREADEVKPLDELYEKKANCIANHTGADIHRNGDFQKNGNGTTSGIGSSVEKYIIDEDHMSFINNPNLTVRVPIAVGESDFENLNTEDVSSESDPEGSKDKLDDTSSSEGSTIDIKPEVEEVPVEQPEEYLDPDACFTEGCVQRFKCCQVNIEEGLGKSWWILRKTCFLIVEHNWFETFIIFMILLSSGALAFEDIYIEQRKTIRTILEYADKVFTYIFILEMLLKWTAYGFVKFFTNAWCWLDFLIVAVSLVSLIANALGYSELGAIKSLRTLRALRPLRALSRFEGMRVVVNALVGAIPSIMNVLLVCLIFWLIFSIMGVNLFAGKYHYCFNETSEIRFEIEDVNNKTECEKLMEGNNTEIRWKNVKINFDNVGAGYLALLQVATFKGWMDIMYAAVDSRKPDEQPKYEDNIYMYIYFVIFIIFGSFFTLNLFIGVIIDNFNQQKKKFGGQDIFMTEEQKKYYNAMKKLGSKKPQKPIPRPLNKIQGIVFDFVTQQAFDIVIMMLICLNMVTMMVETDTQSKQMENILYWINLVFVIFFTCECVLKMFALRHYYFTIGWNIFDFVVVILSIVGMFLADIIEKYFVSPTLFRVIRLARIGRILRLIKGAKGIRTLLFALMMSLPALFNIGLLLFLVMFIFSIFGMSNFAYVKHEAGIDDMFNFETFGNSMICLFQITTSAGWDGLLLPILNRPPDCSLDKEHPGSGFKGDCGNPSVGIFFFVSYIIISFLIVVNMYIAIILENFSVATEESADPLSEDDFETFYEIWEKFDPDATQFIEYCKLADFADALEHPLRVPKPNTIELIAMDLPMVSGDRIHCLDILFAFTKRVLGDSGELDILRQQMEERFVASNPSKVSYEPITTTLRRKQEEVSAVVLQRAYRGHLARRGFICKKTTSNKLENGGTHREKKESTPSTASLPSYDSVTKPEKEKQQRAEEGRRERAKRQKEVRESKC
Procedure: In this example, the in vitro effects of 2-heptanone on the following ion channels were evaluated at room temperature using the PatchXpress 7000A (Molecular Devices), an automatic parallel patch clamp system:
as §1
The effects of 2-heptanone were evaluated at 0.73, 1.46, 2.19, and 2.92 mg/ml with each concentration tested in two cells (n=2). The duration of exposure to each concentration of 2-heptanone was 5 minutes. Tables 2 to 5 show the individual results from each concentration followed by individual concentration-response curves. The positive controls (Table 6) confirm the sensitivity of the test systems to inhibition.
. Br. J. Pharmacol. 164, 719-730). […]

gastrocnemius muscle = test: In vivo muscle CAP (mCAP, EMG integral) after intramuscular injection, gastrocnemius muscle; set-up: species or system rat
Acute LD50 = type: in vivo; details: from acute LD50
[3] = in vivo; cited from earlier work
[4] = system: peripheral nervous system of the rat; details: in-vivo; cited from earlier work
biceps muscle = test: In vivo muscle CAP (mCAP, EMG integral) after intramuscular injection, biceps muscle; details: 7.2 mg/kg intramuscular
[5] = system: isolated sciatic nerve of the rat; test: Evoked compound action potential (CAP) of the isolated rat sciatic nerve in a three-chamber bath (ex vivo): inhibition and recovery after washout; details: for IT0: 15 mM (1.7 mg/mL)

Q: What does the source list for `CCCCCC(C)=O` [2-heptanone]?
A: times less active than lidocaine, hNav1.2 phasic [1]: 12.8 times; times less active than lidocaine, hNav1.2 tonic [1]: 7 times; Individual Data Points (% Inhibition), Nav1.2 phasic ([1]; 0.73 mg/ml, single cells): 44.6%; Individual Data Points (% Inhibition), Nav1.2 tonic ([1]; 0.73 mg/ml, single cells): 27. %; Individual Data Points (% Inhibition), Nav1.2 phasic ([1]; 1.46 mg/ml, single cells): 64.7%; Individual Data Points (% Inhibition), Nav1.2 tonic ([1]; 1.46 mg/ml, single cells): 45.8%; Individual Data Points (% Inhibition), Nav1.2 phasic ([1]; 2.19 mg/ml, single cells): 92.4%; Individual Data Points (% Inhibition), Nav1.2 tonic ([1]; 2.19 mg/ml, single cells): 73. %; Individual Data Points (% Inhibition), Nav1.2 phasic ([1]; 2.92 mg/ml, single cells): 99.8%; Individual Data Points (% Inhibition), Nav1.2 tonic ([1]; 2.92 mg/ml, single cells): 89. %; inhibition at 730 µg/mL ([1]; 0.73 mg/ml, single cells, read-out: Individual Data Points (% Inhibition), Nav1.2 phasic): 44.3%; inhibition at 730 µg/mL ([1]; 0.73 mg/ml, single cells, read-out: Individual Data Points (% Inhibition), Nav1.2 tonic): 31.5%; inhibition at 730 µg/mL ([1]; 0.73 mg/ml, read-out: Mean % Nav1.2 Phasic Inhibition): 44.4%; inhibition at 730 µg/mL ([1]; 0.73 mg/ml, read-out: Mean % Nav1.2 Tonic Inhibition): 29.7%; inhibition at 1460 µg/mL ([1]; 1.46 mg/ml, single cells, read-out: Individual Data Points (% Inhibition), Nav1.2 phasic): 67.9%; inhibition at 1460 µg/mL ([1]; 1.46 mg/ml, single cells, read-out: Individual Data Points (% Inhibition), Nav1.2 tonic): 49.3%; inhibition at 1460 µg/mL ([1]; 1.46 mg/ml, read-out: Mean % Nav1.2 Phasic Inhibition): 66.3%; inhibition at 1460 µg/mL ([1]; 1.46 mg/ml, read-out: Mean % Nav1.2 Tonic Inhibition): 47.6%; inhibition at 2190 µg/mL ([1]; 2.19 mg/ml, single cells, read-out: Individual Data Points (% Inhibition), Nav1.2 phasic): 87.6%; inhibition at 2190 µg/mL ([1]; 2.19 mg/ml, single cells, read-out: Individual Data Points (% Inhibition), Nav1.2 tonic): 56.7%; inhibition at 2190 µg/mL ([1]; 2.19 mg/ml, read-out: Mean % Nav1.2 Phasic Inhibition): 90%; inhibition at 2190 µg/mL ([1]; 2.19 mg/ml, read-out: Mean % Nav1.2 Tonic Inhibition): 65.1%; inhibition at 2920 µg/mL ([1]; 2.92 mg/ml, single cells, read-out: Individual Data Points (% Inhibition), Nav1.2 phasic): 98.2%; inhibition at 2920 µg/mL ([1]; 2.92 mg/ml, single cells, read-out: Individual Data Points (% Inhibition), Nav1.2 tonic): 78.7%; inhibition at 2920 µg/mL ([1]; 2.92 mg/ml, read-out: Mean % Nav1.2 Phasic Inhibition): 99%; inhibition at 2920 µg/mL ([1]; 2.92 mg/ml, read-out: Mean % Nav1.2 Tonic Inhibition): 83.9%; IC50 ([1]; Example 7, n=2, read-out: Nav1.2 phasic IC50 (converted)): 7.57 mM and 7.58 mM; IC50 ([1]; Example 7, n=2, read-out: Nav1.2 tonic IC50 (converted)): 12.1 mM; IC50 ([1]; Example 18, mean ± SEM, read-out: hNav1.2 IC50, phasic (converted)): 11.2 mM; IC50 ([1]; Example 18, mean ± SEM, read-out: hNav1.2 IC50, tonic (converted)): 16.6 mM; Hill coefficient, Nav1.2 phasic ([1]; FIG. 41, mean±SE): 1.24±0.17; Hill coefficient, Nav1.2 tonic ([1]; FIG. 41, mean±SE): 1.44±0.02; times less active than lidocaine, hNav1.6 phasic [2]: 11.7 times; times less active than lidocaine, hNav1.6 tonic [2]: 4.6 times; Individual Data Points (% Inhibition), Nav1.6 phasic ([2]; 0.73 mg/ml, single cells): 81.1%; Individual Data Points (% Inhibition), Nav1.6 tonic ([2]; 0.73 mg/ml, single cells): 52.6%; Individual Data Points (% Inhibition), Nav1.6 phasic ([2]; 1.46 mg/ml, single cells): 99.9%; Individual Data Points (% Inhibition), Nav1.6 tonic ([2]; 1.46 mg/ml, single cells): 70.4%; Individual Data Points (% Inhibition), Nav1.6 phasic ([2]; 2.19 mg/ml, single cells): 101.0%; Individual Data Points (% Inhibition), Nav1.6 tonic ([2]; 2.19 mg/ml, single cells): 100.1%; Individual Data Points (% Inhibition), Nav1.6 phasic ([2]; 2.92 mg/ml, single cells): 100.7%; Individual Data Points (% Inhibition), Nav1.6 tonic ([2]; 2.92 mg/ml, single cells): 99.9%; inhibition at 730 µg/mL ([2]; 0.73 mg/ml, single cells, read-out: Individual Data Points (% Inhibition), Nav1.6 phasic): 94%; inhibition at 730 µg/mL ([2]; 0.73 mg/ml, single cells, read-out: Individual Data Points (% Inhibition), Nav1.6 tonic): 40.9%; inhibition at 730 µg/mL ([2]; 0.73 mg/ml, read-out: Mean % Inhibition, Nav1.6 phasic): 87.6%; inhibition at 730 µg/mL ([2]; 0.73 mg/ml, read-out: Mean % Nav1.6 Tonic Inhibition): 46.8%; inhibition at 1460 µg/mL ([2]; 1.46 mg/ml, single cells, read-out: Individual Data Points (% Inhibition), Nav1.6 phasic): 102%; inhibition at 1460 µg/mL ([2]; 1.46 mg/ml, single cells, read-out: Individual Data Points (% Inhibition), Nav1.6 tonic): 70.8%; inhibition at 1460 µg/mL ([2]; 1.46 mg/ml, read-out: Mean % Inhibition, Nav1.6 phasic): 101%; inhibition at 1460 µg/mL ([2]; 1.46 mg/ml, read-out: Mean % Nav1.6 Tonic Inhibition): 70.6%; inhibition at 2190 µg/mL ([2]; 2.19 mg/ml, single cells, read-out: Individual Data Points (% Inhibition), Nav1.6 phasic): 102%; inhibition at 2190 µg/mL ([2]; 2.19 mg/ml, single cells, read-out: Individual Data Points (% Inhibition), Nav1.6 tonic): 96.5%; inhibition at 2190 µg/mL ([2]; 2.19 mg/ml, read-out: Mean % Inhibition, Nav1.6 phasic): 101%; inhibition at 2190 µg/mL ([2]; 2.19 mg/ml, read-out: Mean % Nav1.6 Tonic Inhibition): 98.3%; inhibition at 2920 µg/mL ([2]; 2.92 mg/ml, single cells, read-out: Individual Data Points (% Inhibition), Nav1.6 phasic): 101%; inhibition at 2920 µg/mL ([2]; 2.92 mg/ml, single cells, read-out: Individual Data Points (% Inhibition), Nav1.6 tonic): 96.1%; inhibition at 2920 µg/mL ([2]; 2.92 mg/ml, read-out: Mean % Inhibition, Nav1.6 phasic): 101%; inhibition at 2920 µg/mL ([2]; 2.92 mg/ml, read-out: Mean % Nav1.6 Tonic Inhibition): 98%; IC50 ([2]; Example 7, n=2, read-out: Nav1.6 phasic IC50): < 6.39 mM; IC50 ([2]; Example 7, n=2, read-out: Nav1.6 tonic IC50 (converted)): 7.06 mM and 7.07 mM; hNav1.6 IC50, phasic ([2]; Example 18, mean ± SEM): 820 ± 30 µg/mL; IC50 ([2]; Example 18, mean ± SEM, read-out: hNav1.6 IC50, tonic (converted)): 11.7 mM; Hill coefficient, Nav1.6 phasic ([2]; FIG. 41, mean±SE): 1.10±0.06; Hill coefficient, Nav1.6 tonic ([2]; FIG. 41, mean±SE): 1.35±0.12; recovery of mCAP after 3 h (gastrocnemius muscle; 7.2 mg/kg intramuscular): 65.4±7.78% and 61%; IT50 of the integral of mCAPs (gastrocnemius muscle; 7.2 mg/kg intramuscular, in Tween 80 + 0.9% NaCl): 25.78 s; IT50 of the integral of mCAPs (gastrocnemius muscle; 10.8 mg/kg intramuscular): 11.16 s; recovery of mCAP, % of initial values after 3 h (gastrocnemius muscle; 10.8 mg/kg intramuscular): no recovery; times more effective than lidocaine (gastrocnemius muscle; similar IT50 at 7.2 mg/kg vs 10.8 mg/kg lidocaine): 1.5 times; times less toxic than lidocaine (Acute LD50): 5.6 times; acute LD50 [3]: 1760 mg/kg; neurotoxic effects on the peripheral nervous system [4]: no neurotoxic effects; IT50 of mCAPs (biceps muscle): 9.13 ± 0.73 s and 9.13 s; IT100 / IT0 ([5]; 1.41 mg/mL): 517.5 ± 25.62 s; IT100 / IT0 ([5]; 1.41 mg/mL, listed as 2-Heptanone): 517.5 ± 25.62 s; IT100 / IT0 ([5]; 2.28 mg/mL (20 mM)): 358.8 ± 18.07 s; IT100 / IT0 ([5]; 2.28 mg/mL (20 mM), listed as 2-Heptanone): 358.8 ± 18.07 s; IT50 (time to inhibit CAP amplitude to 50% of control) ([5]; 10 mg/mL): 22.3 ± 1.1 s; CAP decreased to (% of control) ([5]; 10 mg/mL, within 70 seconds of treatment): 24%; IT50 (time to inhibit CAP amplitude to 50% of control) ([5]; 10 mg/mL, listed as 2-Heptanone): 22.3 ± 1.1 s; IT0 ([5]; stagnant saline, n=5): 5 to 9 min; IT0 ([5]; stirred saline, individual nerves): 5 min and 10 min; recovery of the CAP after washout, % of control ([5]; after 1.41 mg/mL): above 87.5%; IC50 (concentration required to inhibit the CAP to 50% of control) ([5]; estimated from time-response curves, GraphPad Prism 5): 469 ± 2 µg/mL; neurotoxic effect on nerve fibres ([5]; ex vivo, within the limits of 24 h): no neurotoxic effect; fold slower than lidocaine ([5]; whole nerve preparation): 1.54 fold
